Measurements from PubChem BioAssay (NCI).
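Compound exposure: 48 hours, 5 concentrations, 96-well plates. TGI is the concentration that stops growth completely.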

How the values were obtained:
Experiment in all cases: NCI anticancer screen, dose series, 48 h
[1] = test system: UACC-257 melanoma
[2] = test system: EKVX NSCLC
[3] = test system: SR leukemia
[4] = test system: CAKI-1 renal
[5] = test system: DU-145 prostate
[6] = test system: LOX IMVI melanoma
[7] = test system: PC-3 prostate
[8] = test system: UACC-62 melanoma
[9] = test system: M14 melanoma
[10] = test system: A498 renal
[11] = test system: OVCAR-4 ovarian
[12] = test system: TK-10 renal
[13] = test system: MDA-N
[14] = test system: ACHN renal
[15] = test system: HCT-116 colon
[16] = test system: NCI/ADR-RES ovarian
[17] = test system: NCI-H23 lung
[18] = test system: MCF7 breast
[19] = test system: CCRF-CEM leukemia
[20] = test system: SK-MEL-2 melanoma
[21] = test system: KM12 colon
[22] = test system: MALME-3M melanoma
[23] = test system: MDA-MB-435
[24] = test system: U251 CNS
[25] = test system: COLO 205 colon
[26] = test system: SK-OV-3 ovarian
[27] = test system: SW-620 colon
[28] = test system: MDA-MB-231 breast
[29] = test system: SK-MEL-5 melanoma
[30] = test system: OVCAR-8 ovarian
[31] = test system: RPMI-8226 leukemia
[32] = test system: HCC-2998 colon
[33] = test system: HOP-62 NSCLC
[34] = test system: SNB-19 CNS
[35] = test system: A549 NSCLC
[36] = test system: MOLT-4 leukemia
[37] = test system: K-562 leukemia
[38] = test system: SK-MEL-28 melanoma
[39] = test system: T-47D breast
[40] = test system: SF-295 CNS
[41] = test system: HS 578T breast
[42] = test system: NCI-H522 lung
[43] = test system: BT-549 breast
[44] = test system: SNB-75 CNS
[45] = test system: NCI-H226 lung
[46] = test system: 786-0 renal
[47] = test system: UO-31 renal
[48] = test system: OVCAR-3 ovarian
[49] = test system: NCI-H460 lung
[50] = test system: HOP-92 NSCLC
[51] = test system: SN12C renal
[52] = test system: HCT-15 colon
[53] = test system: IGROV1 ovarian
[54] = test system: SF-268 CNS
[55] = test system: OVCAR-5 ovarian
[56] = test system: HT29 colon
[57] = test system: SF-539 CNS

COc1cc(/C=C2/CCS(=O)(=O)c3ccc(C)cc3C2=O)cc(OC)c1OC
TGI [1]: > 42.7 µM | TGI [2]: 30.2 µM | TGI [3]: 7.13 µM | TGI [4]: > 40.8 µM | TGI [5]: > 27.6 µM | TGI [6]: 6.4 µM | TGI [7]: > 100 µM | TGI [8]: 16.8 µM | TGI [9]: 18.9 µM | TGI [10]: 23.7 µM | TGI [11]: > 100 µM | TGI [12]: > 44.5 µM | TGI [13]: > 33.3 µM | TGI [14]: 14.2 µM | TGI [15]: 11.2 µM | TGI [16]: > 28.6 µM | TGI [17]: > 36.2 µM | TGI [18]: 14.9 µM | TGI [19]: > 100 µM | TGI [20]: 99.2 µM | TGI [21]: > 41.2 µM | TGI [22]: > 36.3 µM | TGI [23]: > 27.2 µM | TGI [24]: > 31 µM | TGI [25]: 16.9 µM | TGI [26]: 37.8 µM | TGI [27]: > 45.4 µM | TGI [28]: 11.2 µM | TGI [29]: > 38.3 µM | TGI [30]: 11.5 µM | TGI [31]: 6.6 µM | TGI [32]: > 35.7 µM | TGI [33]: 23.1 µM | TGI [34]: > 34.8 µM | TGI [35]: > 42 µM | TGI [36]: > 100 µM | TGI [37]: 4.06 µM | TGI [38]: > 37.4 µM | TGI [39]: > 52.7 µM | TGI [40]: 42.1 µM | TGI [41]: > 35.9 µM | TGI [42]: 12.4 µM | TGI [43]: > 26.3 µM | TGI [44]: 30 µM | TGI [45]: 45.9 µM | TGI [46]: > 35.4 µM | TGI [47]: 23.4 µM | TGI [48]: 20.1 µM | TGI [49]: 13.5 µM | TGI [50]: > 43.2 µM | TGI [51]: 21.9 µM | TGI [52]: > 39 µM | TGI [53]: > 39.4 µM | TGI [54]: > 49.2 µM | TGI [55]: 25.4 µM | TGI [56]: > 33.8 µM | TGI [57]: 7.05 µM
